Assay results as given in ChEMBL document CHEMBL1127916, “Synthesis and biological character of 1-hydroxylated vitamin D3 Analogues” (1994).

Columns and labels:
[1] = target: T1, Vitamin D-binding protein (Rattus norvegicus) (UniProt P04276); test: Relative binding potency for rat vitamin D binding protein (DBP) by competitive displacement with [3H]1-alpha,25(OH)2D3
T1 sequence (whole entry): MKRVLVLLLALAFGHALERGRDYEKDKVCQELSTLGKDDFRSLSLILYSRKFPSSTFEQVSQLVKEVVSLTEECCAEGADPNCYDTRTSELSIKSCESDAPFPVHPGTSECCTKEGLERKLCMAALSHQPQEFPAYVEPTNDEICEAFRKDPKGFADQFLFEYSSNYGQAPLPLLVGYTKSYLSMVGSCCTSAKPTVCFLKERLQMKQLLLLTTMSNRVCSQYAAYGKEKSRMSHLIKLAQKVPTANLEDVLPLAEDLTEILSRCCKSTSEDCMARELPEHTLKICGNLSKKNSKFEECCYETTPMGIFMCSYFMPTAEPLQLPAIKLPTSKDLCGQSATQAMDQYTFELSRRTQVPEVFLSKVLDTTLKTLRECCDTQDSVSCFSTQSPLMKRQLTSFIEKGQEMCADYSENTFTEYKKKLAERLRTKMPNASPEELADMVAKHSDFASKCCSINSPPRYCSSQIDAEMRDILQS

[2] = target: T2, Vitamin D3 receptor (Bos taurus) (UniProt Q28037); test: Relative binding for bovine thymus vitamin D receptor (VDR) by displacement with [3H]1-alpha,25(OH)2D3
T2 sequence (whole entry): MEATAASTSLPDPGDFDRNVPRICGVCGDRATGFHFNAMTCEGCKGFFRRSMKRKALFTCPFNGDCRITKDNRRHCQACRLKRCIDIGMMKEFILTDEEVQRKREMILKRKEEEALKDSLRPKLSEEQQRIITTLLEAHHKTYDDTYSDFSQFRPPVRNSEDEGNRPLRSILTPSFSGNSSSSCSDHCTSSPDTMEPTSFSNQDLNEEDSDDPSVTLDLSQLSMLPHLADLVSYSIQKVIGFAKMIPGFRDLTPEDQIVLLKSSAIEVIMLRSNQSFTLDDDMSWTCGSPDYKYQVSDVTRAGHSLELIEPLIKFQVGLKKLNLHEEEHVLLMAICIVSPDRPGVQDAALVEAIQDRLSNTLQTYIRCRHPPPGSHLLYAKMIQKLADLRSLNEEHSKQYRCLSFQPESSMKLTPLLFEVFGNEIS

HL-60 = test: Antiproliferative activity in human promyeloid leukemia cells (HL-60); format: functional

**Q.** Which Relative binding potency [1] does the source give for `C=C1/C(=C\C=C2/CCC[C@@]3(C)C2CC[C@@H]3[C@H](C)CCCC(C)(C)O)C[C@@H](O)[C@@H](OCCCO)[C@H]1O` (stereo partly specified) here?
**A.** 6.7

**Q.** And the Relative binding potency [2]?
**A.** 0.003

**Q.** What does the source list for `C=C1/C(=C\C=C2/CCC[C@@]3(C)C2CC[C@@H]3[C@H](C)OCCC(C)(C)O)C[C@@H](O)C[C@H]1O` (stereo partly specified)?
**A.** Relative binding potency [1]: 0.007; Relative potency (HL-60): 0.003; Relative binding potency [2]: 0.007

**Q.** For `C=C1/C(=C\C=C2/CCC[C@@]3(C)C2CC[C@@H]3[C@H](C)CCCC(C)(C)O)C[C@@H](O)C[C@H]1O` (stereo partly specified), which Relative binding potency [1] is on record?
**A.** 2.9

**Q.** What about the Relative potency (HL-60) of the same molecule?
**A.** 0.2

**Q.** And the Relative binding potency [2]?
**A.** 0.2

**Q.** For `C=C1/C(=C\C=C2/CCC[C@]3(C)[C@@H]([C@H](C)OCCC(C)(C)O)CC[C@@H]23)C[C@@H](O)C[C@@H]1O` [MAXACALCITOL], which Relative binding potency [1] is on record?
**A.** 0.002

**Q.** And the Relative potency (HL-60)?
**A.** 3.1

**Q.** And the Relative binding potency [2]?
**A.** 0.6

**Q.** How did the Relative binding potency [1] turn out when `C=C1/C(=C\C=C2/CCC[C@]3(C)[C@@H]([C@H](C)CCCC(C)(C)O)CC[C@@H]23)C[C@@H](O)C[C@@H]1O` [CALCITRIOL] was run?
**A.** 1

**Q.** And the Relative potency (HL-60)?
**A.** 1

**Q.** What about the Relative binding potency [2] of the same molecule?
**A.** 1

**Q.** For `C=C1/C(=C\C=C2/CCC[C@@]3(C)C2CC[C@@H]3[C@H](C)CCCC(C)(C)O)C[C@@H](O)[C@@H](OCCCO)[C@@H]1O` (stereo partly specified), which Relative binding potency [1] is on record?
**A.** 4.1

**Q.** What about the Relative binding potency [2] of the same molecule?
**A.** 0.7
